According to ChEMBL document CHEMBL5465560, “Selectivity Literature for EUbOPEN Chemogenomic Library” (2024):
Blank lines part the entries; values can stand above or below the molecule they belong to.

Legend:
[1] = target: T1, Mitogen-activated protein kinase kinase kinase kinase 4 (Homo sapiens, UniProt O95819); conditions: at 10 µM
[2] = target: T2, Bone morphogenetic protein receptor type-2 (Homo sapiens) (UniProt Q13873); test: Selectivity interaction (Kinase panel (DSF assay)) EUB0001559a BMPR2
T2 sequence (whole entry): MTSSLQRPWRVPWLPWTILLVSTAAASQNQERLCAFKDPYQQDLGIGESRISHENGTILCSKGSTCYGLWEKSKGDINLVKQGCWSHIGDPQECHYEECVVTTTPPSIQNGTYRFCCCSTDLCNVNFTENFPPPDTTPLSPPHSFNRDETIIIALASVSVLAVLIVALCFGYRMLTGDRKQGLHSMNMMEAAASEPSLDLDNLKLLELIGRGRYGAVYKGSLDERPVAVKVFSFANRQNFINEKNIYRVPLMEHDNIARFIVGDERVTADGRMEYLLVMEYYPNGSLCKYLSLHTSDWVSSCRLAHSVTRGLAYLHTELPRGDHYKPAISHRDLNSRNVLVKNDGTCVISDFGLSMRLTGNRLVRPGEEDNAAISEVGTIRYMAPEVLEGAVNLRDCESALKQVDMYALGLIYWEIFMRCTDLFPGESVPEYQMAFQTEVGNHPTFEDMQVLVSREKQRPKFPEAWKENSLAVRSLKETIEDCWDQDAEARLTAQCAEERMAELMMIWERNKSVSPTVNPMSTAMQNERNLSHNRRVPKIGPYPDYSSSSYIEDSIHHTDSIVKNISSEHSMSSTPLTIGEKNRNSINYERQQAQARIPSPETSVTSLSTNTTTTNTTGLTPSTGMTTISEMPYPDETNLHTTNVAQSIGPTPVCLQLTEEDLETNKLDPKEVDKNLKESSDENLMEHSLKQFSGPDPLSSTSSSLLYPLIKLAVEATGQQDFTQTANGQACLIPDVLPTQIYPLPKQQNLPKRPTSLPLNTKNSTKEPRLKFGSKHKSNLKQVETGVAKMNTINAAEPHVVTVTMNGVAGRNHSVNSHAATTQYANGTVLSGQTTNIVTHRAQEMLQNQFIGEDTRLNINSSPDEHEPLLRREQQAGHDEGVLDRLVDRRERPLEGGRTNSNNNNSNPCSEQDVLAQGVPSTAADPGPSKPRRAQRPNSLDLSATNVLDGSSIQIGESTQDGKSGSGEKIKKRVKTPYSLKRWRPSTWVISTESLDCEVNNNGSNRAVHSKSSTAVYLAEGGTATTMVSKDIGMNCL

[3] = target: TRAF2 and NCK-interacting protein kinase (Homo sapiens) (UniProt Q9UKE5); test: Selectivity interaction (KinomeScan (DiscoverX)) EUB0000655a TNIK; conditions: at 10 µM
[4] = target: T1, Mitogen-activated protein kinase kinase kinase kinase 4; test: Selectivity interaction (SelectScreen Kinase Profiling (Thermo Fisher Scientific)) EUB0001558a MAP4K4; conditions: at 1 µM
[5] = target: T3, Serine/threonine-protein kinase MAK (Homo sapiens) (UniProt P20794); test: Selectivity interaction (KinomeScan (DiscoverX)) EUB0000045b MAK
T3 sequence (whole entry): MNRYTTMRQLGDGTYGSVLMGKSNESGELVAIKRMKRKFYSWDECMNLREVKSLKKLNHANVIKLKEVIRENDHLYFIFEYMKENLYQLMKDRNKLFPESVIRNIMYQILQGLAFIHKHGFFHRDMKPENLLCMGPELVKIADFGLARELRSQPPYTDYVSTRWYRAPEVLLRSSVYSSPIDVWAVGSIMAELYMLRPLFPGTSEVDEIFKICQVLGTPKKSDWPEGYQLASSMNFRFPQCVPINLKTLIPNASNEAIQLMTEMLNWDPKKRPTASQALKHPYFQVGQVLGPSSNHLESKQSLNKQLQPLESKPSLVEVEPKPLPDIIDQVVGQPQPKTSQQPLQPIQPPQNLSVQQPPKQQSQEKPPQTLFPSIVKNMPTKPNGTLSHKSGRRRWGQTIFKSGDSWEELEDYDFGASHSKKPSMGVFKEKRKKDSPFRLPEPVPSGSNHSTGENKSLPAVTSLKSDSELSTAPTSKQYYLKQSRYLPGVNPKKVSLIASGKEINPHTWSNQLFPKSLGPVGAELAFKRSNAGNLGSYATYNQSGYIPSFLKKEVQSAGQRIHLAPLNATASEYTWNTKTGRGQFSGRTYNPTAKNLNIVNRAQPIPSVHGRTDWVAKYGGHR

[6] = target: T4, cAMP-dependent protein kinase catalytic subunit alpha (Homo sapiens, UniProt P17612); test: Selectivity interaction (Upstate Kinase Profiler service (Millipore)) EUB0000056c PRKACA; conditions: at 1 µM
[7] = target: Death-associated protein kinase 1 (Homo sapiens, UniProt P53355); conditions: at 10 µM
[8] = target: T4, cAMP-dependent protein kinase catalytic subunit alpha; conditions: at 10 µM
[9] = target: Tyrosine-protein kinase Fyn (Homo sapiens) (UniProt P06241); test: Selectivity interaction (ActivX KiNativ screen (kinase selectivity in THP-1 cell lysates)) EUB0000639a FYN; format: subcellular; conditions: lysate, at 0.2 µM
[10] = target: Serine/threonine-protein kinase 33 (Homo sapiens) (UniProt Q9BYT3); test: Selectivity interaction (KinomeScan (DiscoverX)) EUB0001049a STK33; conditions: at 1 µM
[11] = target: T5, Mitogen-activated protein kinase kinase kinase 3 (Homo sapiens) (UniProt Q99759); test: Selectivity interaction (KinomeScan (DiscoverX)) EUB0000666a MAP3K3; conditions: at 10 µM
T5 sequence (whole entry): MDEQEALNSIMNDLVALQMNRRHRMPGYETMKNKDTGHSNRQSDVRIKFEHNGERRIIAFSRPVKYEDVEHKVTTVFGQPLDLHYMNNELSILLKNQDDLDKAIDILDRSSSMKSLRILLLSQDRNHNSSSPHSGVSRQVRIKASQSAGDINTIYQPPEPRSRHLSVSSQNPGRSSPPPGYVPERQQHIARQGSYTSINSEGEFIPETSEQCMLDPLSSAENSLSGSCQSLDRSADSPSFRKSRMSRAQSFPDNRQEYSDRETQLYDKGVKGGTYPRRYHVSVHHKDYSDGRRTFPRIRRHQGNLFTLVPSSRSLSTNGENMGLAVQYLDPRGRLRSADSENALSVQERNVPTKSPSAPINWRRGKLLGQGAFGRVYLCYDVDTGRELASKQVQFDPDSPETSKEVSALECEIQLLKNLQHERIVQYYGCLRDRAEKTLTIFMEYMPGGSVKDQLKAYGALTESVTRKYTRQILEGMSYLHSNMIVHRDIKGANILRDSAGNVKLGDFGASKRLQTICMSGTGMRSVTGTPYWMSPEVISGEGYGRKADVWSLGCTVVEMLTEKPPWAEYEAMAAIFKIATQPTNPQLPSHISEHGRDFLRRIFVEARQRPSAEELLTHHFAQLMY

[12] = target: Platelet-derived growth factor receptor beta (Homo sapiens, UniProt P09619); test: Selectivity interaction (KinomeScan (DiscoverX)) EUB0000695a PDGFRB; conditions: at 100 nM
Chain of Platelet-derived growth factor receptor beta (P09619 whole entry): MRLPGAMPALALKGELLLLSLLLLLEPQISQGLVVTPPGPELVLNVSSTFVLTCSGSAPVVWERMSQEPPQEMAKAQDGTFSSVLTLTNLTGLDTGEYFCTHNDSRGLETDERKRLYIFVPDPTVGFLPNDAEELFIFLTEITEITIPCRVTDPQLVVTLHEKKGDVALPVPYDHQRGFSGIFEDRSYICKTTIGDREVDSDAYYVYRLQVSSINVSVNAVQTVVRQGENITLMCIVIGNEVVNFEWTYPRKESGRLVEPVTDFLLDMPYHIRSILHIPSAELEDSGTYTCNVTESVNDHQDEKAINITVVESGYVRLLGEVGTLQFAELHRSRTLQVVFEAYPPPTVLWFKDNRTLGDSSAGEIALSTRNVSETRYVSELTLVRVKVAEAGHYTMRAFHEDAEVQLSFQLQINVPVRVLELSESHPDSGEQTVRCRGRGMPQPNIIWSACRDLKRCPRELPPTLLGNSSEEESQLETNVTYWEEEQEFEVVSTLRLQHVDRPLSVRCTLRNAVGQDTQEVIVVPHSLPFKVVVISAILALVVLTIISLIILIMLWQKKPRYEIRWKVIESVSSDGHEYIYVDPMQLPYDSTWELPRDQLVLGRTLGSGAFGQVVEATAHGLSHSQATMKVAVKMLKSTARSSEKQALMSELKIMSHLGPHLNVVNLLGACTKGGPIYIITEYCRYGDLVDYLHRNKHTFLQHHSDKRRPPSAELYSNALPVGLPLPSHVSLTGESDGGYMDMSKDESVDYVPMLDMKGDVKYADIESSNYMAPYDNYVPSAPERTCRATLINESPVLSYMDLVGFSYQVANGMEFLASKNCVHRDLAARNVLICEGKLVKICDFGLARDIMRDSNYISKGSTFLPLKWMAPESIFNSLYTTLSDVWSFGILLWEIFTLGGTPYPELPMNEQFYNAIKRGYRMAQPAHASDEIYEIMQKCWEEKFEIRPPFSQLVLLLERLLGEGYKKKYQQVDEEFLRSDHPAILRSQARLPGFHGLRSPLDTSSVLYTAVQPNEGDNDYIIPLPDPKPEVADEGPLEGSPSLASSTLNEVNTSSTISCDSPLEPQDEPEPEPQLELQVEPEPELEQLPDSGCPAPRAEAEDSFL

T1 sequence (O95819 2-1239 limits assumed): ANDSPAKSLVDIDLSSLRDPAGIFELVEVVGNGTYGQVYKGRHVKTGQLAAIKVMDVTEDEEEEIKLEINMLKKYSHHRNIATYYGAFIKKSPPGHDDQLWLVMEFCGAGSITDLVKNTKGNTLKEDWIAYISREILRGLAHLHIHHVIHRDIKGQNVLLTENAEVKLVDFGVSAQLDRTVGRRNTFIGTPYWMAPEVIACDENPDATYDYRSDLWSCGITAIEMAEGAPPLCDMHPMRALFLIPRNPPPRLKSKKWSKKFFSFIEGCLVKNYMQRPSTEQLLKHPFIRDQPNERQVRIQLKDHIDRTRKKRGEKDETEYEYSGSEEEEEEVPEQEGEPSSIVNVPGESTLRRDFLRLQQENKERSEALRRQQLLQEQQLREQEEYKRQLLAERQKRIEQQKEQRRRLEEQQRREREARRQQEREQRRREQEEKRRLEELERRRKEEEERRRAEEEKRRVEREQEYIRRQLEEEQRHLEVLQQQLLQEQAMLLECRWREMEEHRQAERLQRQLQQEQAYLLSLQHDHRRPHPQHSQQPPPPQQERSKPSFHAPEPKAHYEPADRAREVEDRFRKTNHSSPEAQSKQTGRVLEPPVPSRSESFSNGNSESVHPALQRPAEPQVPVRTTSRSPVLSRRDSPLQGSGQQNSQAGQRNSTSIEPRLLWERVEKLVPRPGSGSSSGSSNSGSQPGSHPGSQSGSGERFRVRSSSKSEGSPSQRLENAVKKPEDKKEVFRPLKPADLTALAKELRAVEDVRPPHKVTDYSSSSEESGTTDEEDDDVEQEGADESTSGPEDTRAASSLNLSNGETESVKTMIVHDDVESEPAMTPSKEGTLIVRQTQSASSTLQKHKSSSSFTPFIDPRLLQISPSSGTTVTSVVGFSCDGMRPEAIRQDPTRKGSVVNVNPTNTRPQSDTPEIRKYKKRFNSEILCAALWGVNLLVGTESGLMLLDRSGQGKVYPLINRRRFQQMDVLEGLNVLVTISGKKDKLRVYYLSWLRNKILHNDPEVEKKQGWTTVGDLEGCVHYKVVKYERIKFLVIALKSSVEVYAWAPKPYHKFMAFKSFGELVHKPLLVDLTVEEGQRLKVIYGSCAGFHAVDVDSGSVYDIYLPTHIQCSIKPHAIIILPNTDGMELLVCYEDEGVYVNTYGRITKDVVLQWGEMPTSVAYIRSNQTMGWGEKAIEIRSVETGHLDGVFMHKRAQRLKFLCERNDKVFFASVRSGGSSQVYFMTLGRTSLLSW
Chain of Death-associated protein kinase 1 (P53355 whole entry, looked up): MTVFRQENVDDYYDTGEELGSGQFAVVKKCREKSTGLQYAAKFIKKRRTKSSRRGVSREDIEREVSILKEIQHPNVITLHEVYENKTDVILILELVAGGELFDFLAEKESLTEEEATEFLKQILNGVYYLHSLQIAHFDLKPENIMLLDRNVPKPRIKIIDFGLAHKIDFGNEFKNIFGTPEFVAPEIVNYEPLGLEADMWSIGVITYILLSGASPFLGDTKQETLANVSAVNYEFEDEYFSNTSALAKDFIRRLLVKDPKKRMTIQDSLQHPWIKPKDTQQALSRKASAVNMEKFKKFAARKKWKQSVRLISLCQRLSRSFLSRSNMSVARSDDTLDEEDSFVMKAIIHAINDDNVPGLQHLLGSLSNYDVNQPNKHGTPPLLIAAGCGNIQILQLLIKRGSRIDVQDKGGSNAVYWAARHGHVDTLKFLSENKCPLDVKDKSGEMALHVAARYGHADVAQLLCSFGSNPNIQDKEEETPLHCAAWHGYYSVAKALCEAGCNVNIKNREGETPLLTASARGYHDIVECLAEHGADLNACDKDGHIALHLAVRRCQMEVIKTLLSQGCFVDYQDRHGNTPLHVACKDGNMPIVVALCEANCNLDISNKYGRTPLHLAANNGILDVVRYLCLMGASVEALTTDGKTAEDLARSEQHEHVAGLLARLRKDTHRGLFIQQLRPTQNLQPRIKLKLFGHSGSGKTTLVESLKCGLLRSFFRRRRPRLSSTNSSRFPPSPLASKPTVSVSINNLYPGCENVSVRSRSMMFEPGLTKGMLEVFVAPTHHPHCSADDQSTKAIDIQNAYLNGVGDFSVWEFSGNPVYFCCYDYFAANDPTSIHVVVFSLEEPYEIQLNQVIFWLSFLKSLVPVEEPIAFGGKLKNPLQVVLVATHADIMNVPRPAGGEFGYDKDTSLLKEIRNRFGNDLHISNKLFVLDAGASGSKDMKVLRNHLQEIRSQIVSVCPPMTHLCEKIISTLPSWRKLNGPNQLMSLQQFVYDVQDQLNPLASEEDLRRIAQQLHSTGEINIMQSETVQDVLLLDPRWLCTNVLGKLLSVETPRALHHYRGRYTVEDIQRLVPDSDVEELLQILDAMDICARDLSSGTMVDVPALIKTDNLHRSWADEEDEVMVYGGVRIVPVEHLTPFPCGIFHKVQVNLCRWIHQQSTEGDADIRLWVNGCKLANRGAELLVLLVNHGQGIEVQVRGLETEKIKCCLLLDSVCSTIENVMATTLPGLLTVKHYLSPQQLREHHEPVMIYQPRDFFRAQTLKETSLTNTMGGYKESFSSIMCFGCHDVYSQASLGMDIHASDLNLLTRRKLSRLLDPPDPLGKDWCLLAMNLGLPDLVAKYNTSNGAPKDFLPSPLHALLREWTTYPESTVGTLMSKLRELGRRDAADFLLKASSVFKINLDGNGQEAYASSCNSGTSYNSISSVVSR
Chain of Serine/threonine-protein kinase 33 (Homo sapiens) (Q9BYT3 whole entry, looked up): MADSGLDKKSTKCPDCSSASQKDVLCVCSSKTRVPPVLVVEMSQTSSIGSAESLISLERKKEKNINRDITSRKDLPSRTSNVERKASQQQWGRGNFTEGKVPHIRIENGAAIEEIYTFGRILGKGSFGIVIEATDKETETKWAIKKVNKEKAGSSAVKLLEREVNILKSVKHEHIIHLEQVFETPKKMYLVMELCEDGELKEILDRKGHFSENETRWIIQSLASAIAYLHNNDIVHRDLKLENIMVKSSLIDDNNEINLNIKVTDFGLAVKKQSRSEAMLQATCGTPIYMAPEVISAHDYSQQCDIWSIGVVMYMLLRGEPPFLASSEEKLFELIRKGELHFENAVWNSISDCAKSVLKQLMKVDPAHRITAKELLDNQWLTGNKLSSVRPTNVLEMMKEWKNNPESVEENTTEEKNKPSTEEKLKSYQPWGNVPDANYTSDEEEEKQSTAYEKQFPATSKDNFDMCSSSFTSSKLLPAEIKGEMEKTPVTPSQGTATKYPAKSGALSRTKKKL
Chain of Tyrosine-protein kinase Fyn (Homo sapiens) (P06241 2-537 limits assumed): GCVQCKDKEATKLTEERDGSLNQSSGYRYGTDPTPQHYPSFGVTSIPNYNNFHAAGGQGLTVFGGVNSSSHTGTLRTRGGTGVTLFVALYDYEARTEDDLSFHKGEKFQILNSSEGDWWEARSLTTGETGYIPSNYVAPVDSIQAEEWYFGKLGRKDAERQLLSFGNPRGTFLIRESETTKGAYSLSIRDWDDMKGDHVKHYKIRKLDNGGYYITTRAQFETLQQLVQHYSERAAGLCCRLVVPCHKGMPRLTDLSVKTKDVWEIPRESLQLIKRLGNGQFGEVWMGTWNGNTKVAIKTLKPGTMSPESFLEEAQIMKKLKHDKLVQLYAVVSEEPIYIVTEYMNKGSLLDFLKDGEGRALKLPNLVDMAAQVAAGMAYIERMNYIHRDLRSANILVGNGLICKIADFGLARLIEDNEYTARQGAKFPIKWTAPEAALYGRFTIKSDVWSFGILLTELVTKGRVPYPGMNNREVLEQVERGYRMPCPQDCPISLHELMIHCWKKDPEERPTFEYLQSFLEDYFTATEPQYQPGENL

% of control [1]: 100%
SMILES: CCN(CC)CCCCNc1ncc2cc(-c3cc(OC)cc(OC)c3)c(NC(=O)NC(C)(C)C)nc2n1

dTM [2]: -0.3 K
SMILES: CN(C(=O)c1cnn2cccnc12)c1cc2c(cc1N1CCOCC1)C(=O)N(C[C@@H](F)C(C)(C)O)C2

SMILES: CN(C)CCOc1ccc(-c2nc(-c3ccncc3)c(-c3ccc4c(c3)CC/C4=N\O)[nH]2)cc1
% of control [3]: 12%

SMILES: CC(C)(O)[C@H](F)CN1Cc2cc(NC(=O)c3cnn4cccnc34)c(N3CCOCC3)cc2C1=O
% of inhibition [4]: 86.3%

SMILES: C=CC(=O)Nc1cc(-n2c(=O)ccc3cnc4ccc(-c5ccc(NS(C)(=O)=O)cc5)cc4c32)ccc1C
% of control ([5]; at 1 µM): 70%
% of control ([5]; at 10 µM): 100%

% of inhibition [6]: 14%
SMILES: Cc1ccc(-c2ccc3c(ccc4sc5c(c43)NC[C@@H](C)NC5=O)n2)cn1

SMILES: Cc1cc([C@@H](C)Nc2ccccc2C(=O)O)c2nc(N3CCOCC3)cc(=O)n2c1 [AZD-6482]
% of control [7]: 95%
% of control [8]: 100%

% of inhibition [9]: 0.7%
SMILES: CC[C@@H]1[C@H](F)C(=O)N[C@@H]1COc1nccc2cc(C(N)=O)c(OC)cc12 [ZIMLOVISERTIB]

SMILES: COc1cc(Nc2nc(C)cc(-c3cnn4nc(OC)ccc34)n2)cc(C(F)(F)F)c1
% of control [10]: 94%

SMILES: O=C(NOC[C@H](O)CO)c1ccc(F)c(F)c1Nc1ccc(I)cc1F
% of control [11]: 98%

SMILES: Cc1cc(F)c(C(=O)Nc2cccc(-c3nncn3C(C)C)n2)cc1-n1cnc(C2CC2)c1
% of control [12]: 90%
